≈ marks a conversion by molar mass, not a printed value.
Key:
[1] = tested on: membrane of gram-positive bacteria; conditions: previously reported; cited from earlier work
MRSA = conditions: HTS hit, previously reported by Applicants; cited from earlier work
eukaryotic membranes = conditions: cited from earlier work
S. aureus MW2 = test: Antimicrobial susceptibility MIC, S. aureus MW2; assay type: cell-based; conditions: Staphylococcus aureus; S. aureus strain MW2; read-out: MIC
From the text: (§1) The first set of compounds evaluated were analogs at the C-7 and C-8 positions of the initial quinolone hit DNAC-2 since the other HTS hits identified (data not shown) were substituted at these positions (Table 1). Applicants first explored modification at the C-7 position with a small series of electron-donating and withdrawing substituents. […] However, analogs containing electron donating groups at C-7 including ethyl 7, benzyloxy 8, methoxy 9 and methylthio 10 are weakly active displaying MICs of 320-640 μg/mL indicating electron-donating substituents at C-7 are poorly tolerated. […] The C-8 position was evaluated with trifluoromethyl 4 and trifluoromethoxy 5 containing the optimal C-7 substituents. Both 4 and 5 are equipotent to the corresponding C-7 analogs 2 and 3 indicating some flexibility of the quinolone scaffold.
(§2) The compounds maintain activity against Staphylococcus epidermidis; however, 31, 111 and 123 all lose considerable potency against Enterococcus faecalis and Enterococcus faecium, which contribute heavily, along with MRSA, to healthcare-associated infections.

S. epidermidis NIH04003 = test: Antimicrobial susceptibility MIC, S. epidermidis NIH04003; assay type: cell-based; conditions: Staphylococcus epidermidis; S. epidermidis strain NIH04003
From the text: as §1, §2

S. aureus NRS71 = test: Antimicrobial susceptibility MIC, S. aureus NRS71; assay type: cell-based; conditions: Staphylococcus aureus; S. aureus strain NRS71
From the text: as §1, §2

[2] = tested on: methicillin-resistant S. aureus (FPR3757); test: MIC against clinical MRSA strain FPR3757 in Mueller-Hinton broth (CLSI); assay type: cell-based, Staphylococcus aureus; conditions: Staphylococcus aureus, MRSA, MRSA clinical strain FPR3757, Mueller-Hinton broth, CLSI guidelines, complete inhibition of observable growth; read-out: MIC
From the text: as §1

E. faecalis DHMC #1 = test: Antimicrobial susceptibility MIC, E. faecalis DHMC #1; assay type: cell-based; conditions: Enterococcus faecalis; E. faecalis strain DHMC #1
From the text: as §1, §2

S. aureus COL = test: Antimicrobial susceptibility MIC, S. aureus COL; assay type: cell-based; conditions: Staphylococcus aureus; S. aureus strain COL
From the text: as §1, §2

S. aureus NIH04008 = test: Antimicrobial susceptibility MIC, S. aureus NIH04008; assay type: cell-based; conditions: Staphylococcus aureus; S. aureus strain NIH04008; read-out: MIC
From the text: as §1, §2

E. faecium DHMC #1 = test: Antimicrobial susceptibility MIC, E. faecium DHMC #1; assay type: cell-based; conditions: Enterococcus faecium; E. faecium strain DHMC #1
From the text: as §1, §2

Solubility = assay type: physicochemical
[3] = tested on: erythrocyte membranes (versus S. aureus membranes); test: in vitro; assay type: cell-based, sheep; conditions: sheep; read-out: selectivity for S. aureus membranes over erythrocyte membranes
Procedure: FIG. 8 illustrates percent hemolysis analysis of sheep erythrocytes. Concentration-dependent hemolysis was measured by monitoring the optical density (OD)540 of PBS-washed sheep erythrocytes. Complete hemolysis (100%) was confirmed by treatment of erythrocytes with Triton X-100. Data points represent the mean±SD of triplicate experiments.
The macromolecular synthesis assay, TEM, and FM experiments were all consistent with membrane disruption. […] The high membrane selectivity of the 5-aminoquinolin-4-ones in this assay is impressive and is in accordance with the observed therapeutic index (CC50/MIC).

[4] = tested on: clinical methicillin-resistant Staphylococcus aureus (MRSA) isolates; test: MIC against panel of MRSA / staphylococcal strains (text summaries); assay type: cell-based; conditions: six S. aureus strains of Table 9, read-out: MIC towards all six S. aureus strains
From the text: as §1, §2

S. aureus N325 = test: Antimicrobial susceptibility MIC, S. aureus N325; assay type: cell-based; conditions: Staphylococcus aureus; S. aureus strain N325
From the text: as §1, §2

| SMILES | membrane effect on gram-positive bacteria [1] | MIC against MRSA (MRSA) | toxicity towards eukaryotic membranes (eukaryotic membranes) | MIC (S. aureus MW2) | MIC (S. epidermidis NIH04003) | MIC (S. aureus NRS71) | MIC [2] | MIC (E. faecalis DHMC #1) | MIC (S. aureus COL) | MIC (S. aureus NIH04008) | MIC (E. faecium DHMC #1) | solubility (Solubility) | selectivity ratio [3] | MIC [4] | MIC (S. aureus N325) |
| --- | --- | --- | --- | --- | --- | --- | --- | --- | --- | --- | --- | --- | --- | --- | --- |
| O=c1cc(C(F)(F)F)[nH]c2c(OC(F)(F)F)cccc12 [DNAC-2] | partial membrane depolarization | 8 µg/mL (≈ 26.9 µM) | no toxicity towards eukaryotic membranes |  |  |  |  |  |  |  |  |  |  |  |  |
| O=c1cc(C(F)(F)F)[nH]c2cc(C(F)(F)F)cc(Nc3ccc(C(F)(F)F)cn3)c12 [Compound 111] |  |  |  | < 0.06 µg/mL | < 0.06 µg/mL | < 0.06 µg/mL | < 0.06 µg/mL | 2 µg/mL (≈ 4.53 µM) | < 0.06 µg/mL | < 0.06 µg/mL | 2 µg/mL (≈ 4.53 µM) | low solubility | > 500 | < 0.06 µg/mL | < 0.06 µg/mL |
